Assay results taken from ChEMBL document CHEMBL4483862, “Open-source discovery of chemical leads for next-generation chemoprotective antimalarials” (2018).

Tested on: Plasmodium berghei
Assay: Luciferase/luciferin-expressing antifolate-resistant parasites were used to infect a culture of HepG2 cells that were pre-incubated with compounds. Infected hepatocytes emit light due to the luciferase reaction. Assay results are presented as the percent inhibition of light emission compared to control. […]
Assay type: functional
Details: sporozoite; for IC90: read-out: LUCIFERASE INFECTION ASSAY - IC90
[1] = read-out: LUCIFERASE INFECTION ASSAY - IC50

| Compound | IC90 [µM] | further results |
| --- | --- | --- |
| Cc1cc(C(=O)C(C)OC(=O)CCn2cnc3c(cnn3C)c2=O)c(C)n1-c1ccc(Cl)cc1 (stereo not drawn) | > 10 | IC50 (HEPG2TOX_HILL_SLOPE 12.8, HEPG2TOX_R_SQUARED 0.861, read-out: LUCIFERASE INFECTION ASSAY - IC50): > 10 µM |
| COc1ccccc1-c1cc(-c2ccccc2N(C)C)cnc1N | > 10.3 | IC50 (HEPG2TOX_HILL_SLOPE 3.39, HEPG2TOX_R_SQUARED 0.524, PBLUC_HILL_SLOPE 1.95, PBLUC_R_SQUARED 0.212, read-out: LUCIFERASE INFECTION ASSAY - IC50): 5.47 µM |
| Cc1ccc(C)c(OCC(O)CN2CCN(Cc3nc(-c4ccc(Cl)cc4)no3)CC2)c1 (stereo not drawn) | 7.62 | IC50 (HEPG2TOX_HILL_SLOPE 2.12, HEPG2TOX_R_SQUARED 0.919, PBLUC_HILL_SLOPE 1.87, PBLUC_R_SQUARED 0.881, read-out: LUCIFERASE INFECTION ASSAY - IC50): 2.36 µM |
| CCOc1cccc(-c2cn3c(-c4ccc5c(ccn5C)c4)cnc3cn2)c1 | 0.0637 | IC50 (HEPG2TOX_HILL_SLOPE 0.658, HEPG2TOX_R_SQUARED 0.817, PBLUC_HILL_SLOPE 2.41, PBLUC_R_SQUARED 0.611, read-out: LUCIFERASE INFECTION ASSAY - IC50): 0.0256 µM |
| CNC(=O)CN(C)Cc1c(O)c(C(=O)NCc2ccccc2)cc2ccccc12 | > 10 | IC50 (PBLUC_HILL_SLOPE 3.62, PBLUC_R_SQUARED 0.233, read-out: LUCIFERASE INFECTION ASSAY - IC50): 8.75 µM |
| O=C(c1cccc(F)c1)c1cnc(Nc2cccc(Br)c2)[nH]1 | > 9.16 | IC50 (PBLUC_HILL_SLOPE 15, PBLUC_R_SQUARED 0.325, read-out: LUCIFERASE INFECTION ASSAY - IC50): 8.58 µM |
| Cc1ccc(C)c(OCC(O)Cn2nc(C)c3ccccc3c2=O)c1C (stereo not drawn) | > 10 | IC50 [1]: > 10 µM |
| CCCCNC(=O)c1c(NC(=O)c2ccccc2)nc2ccc(C)cn12 | 6.8 | IC50 (FFLUC_HILL_SLOPE 60.4, FFLUC_R_SQUARED 0.28, HEPG2TOX_HILL_SLOPE 6.52, HEPG2TOX_R_SQUARED 0.955, PBLUC_HILL_SLOPE 4.31, PBLUC_R_SQUARED 0.763, read-out: LUCIFERASE INFECTION ASSAY - IC50): 4.08 µM |
| CC(C)c1ccc(NC(=O)c2csc(C(O)c3ccccc3)n2)cc1 (stereo not drawn) | > 10 | IC50 (HEPG2TOX_HILL_SLOPE 0.582, HEPG2TOX_R_SQUARED 0.837, PBLUC_HILL_SLOPE 1.67, PBLUC_R_SQUARED 0.415, read-out: LUCIFERASE INFECTION ASSAY - IC50): 7.47 µM |
| COc1cc(-c2cc(C(=O)N/N=C3/C(=O)N(CC(C)C)c4ccccc43)c3ccccc3n2)cc(OC)c1OC | > 10 | IC50 [1]: > 10 µM |
| Cc1cccc(C(=O)Nc2nc3ccccn3c2C(=O)NC2CCCC2)c1 | 4.69 | IC50 (HEPG2TOX_HILL_SLOPE 8.83, HEPG2TOX_R_SQUARED 0.45, PBLUC_HILL_SLOPE 2.41, PBLUC_R_SQUARED 0.415, read-out: LUCIFERASE INFECTION ASSAY - IC50): 1.88 µM |
| CC(C)CN1CCOC(CSc2nc3sc4c(c3c(=O)n2C)CCC4)C1 (stereo not drawn) | > 10 | IC50 [1]: > 10 µM |
| CC(C)N1/C(=C\c2ccccc2O)C(=O)c2ccccc2S1(=O)=O | > 9.61 | IC50 (HEPG2TOX_HILL_SLOPE 2.04, HEPG2TOX_R_SQUARED 0.975, PBLUC_HILL_SLOPE 1.99, PBLUC_R_SQUARED 0.616, read-out: LUCIFERASE INFECTION ASSAY - IC50): 3.26 µM |
| Cc1cc2occ(CC(=O)Nc3sccc3C(N)=O)c2cc1C(C)C | 4.1 | IC50 (HEPG2TOX_HILL_SLOPE 3.18, 2.30, HEPG2TOX_R_SQUARED 0.297, 0.732, PBLUC_HILL_SLOPE 15.1, PBLUC_R_SQUARED 0.252, read-out: LUCIFERASE INFECTION ASSAY - IC50): 3.55 µM |
| COc1ccc(CNc2nc3cnc(Nc4cccc(Cl)c4)cc3n2C)cc1OC | 3.92 | IC50 (HEPG2TOX_HILL_SLOPE 1.65, HEPG2TOX_R_SQUARED 0.962, PBLUC_HILL_SLOPE 14.9, PBLUC_R_SQUARED 0.209, read-out: LUCIFERASE INFECTION ASSAY - IC50): 3.38 µM |
| Cc1nc2ccccc2nc1SCC(=O)NC1CCCC(C)C1C (stereo not drawn) | 8.45 | IC50 (HEPG2TOX_HILL_SLOPE 2.05, HEPG2TOX_R_SQUARED 0.851, PBLUC_HILL_SLOPE 3.81, PBLUC_R_SQUARED 0.351, read-out: LUCIFERASE INFECTION ASSAY - IC50): 4.75 µM |
| CCN(c1ccccc1)S(=O)(=O)c1ccc(C(=O)N2CCN(c3cccc(C)c3C)CC2)cc1 | 5.07 | IC50 [1]: 4.15 µM |
| O=C(OCCSc1ccc([N+](=O)[O-])c2nonc12)c1cccc(C(F)(F)F)c1 | > 7.98 | IC50 (FFLUC_HILL_SLOPE 3.07, FFLUC_R_SQUARED 0.747, HEPG2TOX_HILL_SLOPE 10.3, HEPG2TOX_R_SQUARED 0.666, PBLUC_HILL_SLOPE 2.08, PBLUC_R_SQUARED 0.429, read-out: LUCIFERASE INFECTION ASSAY - IC50): 3.94 µM |
| Cc1cccc(C=C(C(=O)NC(C)c2ccccc2)C(=O)NC(C)c2ccccc2)c1 (stereo not drawn) | 8.3 | IC50 (HEPG2TOX_HILL_SLOPE 105, HEPG2TOX_R_SQUARED 0.565, PBLUC_HILL_SLOPE 4.68, PBLUC_R_SQUARED 0.0675, read-out: LUCIFERASE INFECTION ASSAY - IC50): 5.19 µM |
| Cc1ccc(O)c(/C=N/NC(=S)NC(C)(C)C)c1 | > 12.4 | IC50 (PBLUC_HILL_SLOPE 24.9, PBLUC_R_SQUARED 0.247, read-out: LUCIFERASE INFECTION ASSAY - IC50): 11.8 µM |

| Compound | IC90 [µM] | further results |
| --- | --- | --- |
| Oc1ccc(Br)cc1/C=N/c1cc(C(F)(F)F)ccc1NCCc1ccccc1 | > 7.12 | IC50 (PBLUC_HILL_SLOPE 12.2, PBLUC_R_SQUARED 0.511, read-out: LUCIFERASE INFECTION ASSAY - IC50): > 7.12 µM |
| Cc1nc(NCc2ccc3c(c2)OCO3)c2c3c(sc2n1)CCCC3 | > 10 | IC50 (PBLUC_HILL_SLOPE 12.4, PBLUC_R_SQUARED 0.761, read-out: LUCIFERASE INFECTION ASSAY - IC50): 8.99 µM |
| C=C(C)C/N=c1\scc(-c2ccccc2F)n1/N=C1\CCCCc2ccccc21 | > 10 | IC50 [1]: > 10 µM |
| CCOc1ccccc1C(=O)CN1C(=O)COc2ccccc2C1=O | > 9.72 | IC50 [1]: > 9.72 µM |
| Cc1c(-c2ccccc2)sc2[nH]c(SC(C(=O)c3ccccc3)c3ccccc3)nc(=O)c12 (stereo not drawn) | > 10 | IC50 (HEPG2TOX_HILL_SLOPE 4.76, HEPG2TOX_R_SQUARED 0.813, PBLUC_HILL_SLOPE 2.74, PBLUC_R_SQUARED 0.111, read-out: LUCIFERASE INFECTION ASSAY - IC50): 6.76 µM |
| Cc1cc(N(C)C(C)c2ccc(-n3cnc4ccccc43)cc2)n2ncnc2n1 (stereo not drawn) | > 10 | IC50 (HEPG2TOX_HILL_SLOPE 9.21, HEPG2TOX_R_SQUARED 0.124, PBLUC_HILL_SLOPE 9.5, PBLUC_R_SQUARED 0.615, read-out: LUCIFERASE INFECTION ASSAY - IC50): 8.2 µM |
| CCOc1cc(/C=C/c2ccc3cccc(O)c3n2)cc(Br)c1O | 3.78 | IC50 [1]: 3.28 µM |
| Cc1cc(C=C2Sc3ccc4ccccc4c3N2C)cc(C)[n+]1Cc1cccnc1 | > 10 | IC50 [1]: > 10 µM |
| CC(=O)c1cccc(-c2cnc3cnc(-c4ccccc4)cn23)c1 | > 10.5 | IC50 (PBLUC_HILL_SLOPE 2.79, PBLUC_R_SQUARED 0.249, read-out: LUCIFERASE INFECTION ASSAY - IC50): 9.07 µM |
| CCn1c2ccccc2c2cc(Nc3c(C#N)c(=O)n(C)c(=O)n3C)ccc21 | 0.508 | IC50 (HEPG2TOX_HILL_SLOPE 1.91, HEPG2TOX_R_SQUARED 0.9, PBLUC_HILL_SLOPE 11.3, PBLUC_R_SQUARED 0.663, read-out: LUCIFERASE INFECTION ASSAY - IC50): 0.418 µM |
| Cc1cc(NC(=O)c2ccc(C)c(C)c2)n(-c2nc3ccccc3[nH]2)n1 | > 9.55 | IC50 (PBLUC_HILL_SLOPE 14, PBLUC_R_SQUARED 0.327, read-out: LUCIFERASE INFECTION ASSAY - IC50): 8.17 µM |
| FC(F)(F)Oc1cccc(-c2cnc3cnc(-c4cccnc4)cn23)c1 | > 9.26 | IC50 (PBLUC_HILL_SLOPE 14.8, PBLUC_R_SQUARED 0.205, read-out: LUCIFERASE INFECTION ASSAY - IC50): 8.62 µM |
| O=C(Nc1cc(C(F)(F)F)cc(C(F)(F)F)c1)Nc1cnn(-c2ccccc2)c1C(F)(F)F | 2.67 | IC50 (HEPG2TOX_HILL_SLOPE 8.4, HEPG2TOX_R_SQUARED 0.935, PBLUC_HILL_SLOPE 10.9, PBLUC_R_SQUARED 0.166, read-out: LUCIFERASE INFECTION ASSAY - IC50): 2.19 µM |
| COC(=O)Cc1[nH]n(-c2ccccc2)c(=O)c1C(C)=NCc1cccnc1 | > 9.06 | IC50 (HEPG2TOX_HILL_SLOPE 0.403, HEPG2TOX_R_SQUARED 0.018, read-out: LUCIFERASE INFECTION ASSAY - IC50): > 9.06 µM |
| COc1ccc2c(C)cc(SCc3nc(=O)c4c(-c5ccc(Cl)cc5)csc4[nH]3)nc2c1 | > 10 | IC50 [1]: > 10 µM |
| CC(=O)NCc1ccc(-c2csc(NC(=O)CCc3ccco3)n2)cc1 | > 10 | IC50 [1]: > 10 µM |
| CCC(C)NC(=O)c1c(NC(=O)c2cc(OC)cc(OC)c2)nc2ccc(C)cn12 (stereo not drawn) | 2.79 | IC50 (HEPG2TOX_HILL_SLOPE 2.24, HEPG2TOX_R_SQUARED 0.668, PBLUC_HILL_SLOPE 45.5, PBLUC_R_SQUARED 0.204, read-out: LUCIFERASE INFECTION ASSAY - IC50): 2.66 µM |
| CCCCOc1ccc(C(=O)Nc2ccc(N(c3ccccc3)C(C)C)cc2)cc1OCC | > 10 | IC50 [1]: > 10 µM |
| C=C1S/C(=N\c2ccccc2OC)N(C(=O)c2c(-c3ccccc3Cl)noc2C)C12CCCCC2 | > 6.5 | IC50 (FFLUC_HILL_SLOPE 28.3, FFLUC_R_SQUARED 0.328, HEPG2TOX_HILL_SLOPE 0.898, HEPG2TOX_R_SQUARED 0.613, PBLUC_HILL_SLOPE 1.13, PBLUC_R_SQUARED 0.144, read-out: LUCIFERASE INFECTION ASSAY - IC50): 3.72 µM |
